According to patent US9113629B2, “4-amino-6-(4-substituted-phenyl)-picolinates and 6-amino-2-(4-substituted-phenyl)-pyrimidine-4-carboxylates and their use as herbicides” (DOW AGROSCIENCES LLC, priority 2013, dated 2015):
Read-outs that look alike come from different tables or passages of the source.

Columns and labels:
[1] = tested on: Key Grass and Sedge Weeds as well as Grass Crops; test: Post-emergent Test II herbicidal activity (Table 6); type: in vivo; conditions: post-emergence, 336 h; for pest or weed control at 70 g/ha: application rate 70 g ai/ha; for pest or weed control at 140 g/ha: application rate 140 g ai/ha
In short: (§1)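 Visual injury ratings (0 = no injury, 100 = complete kill) were taken 14 d after treatment, relative to untreated plants. Seedlings at the first–second true leaf stage received overhead spray at 187 L/ha; the highest rate was serially diluted to ½×, ¼×, ⅛× and 1/16×.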

[2] = tested on: Key Broadleaf Weed and Crop Species; test: Post-emergent Test II herbicidal activity (Table 5); type: in vivo; conditions: post-emergence, 336 h, post-emergent, 14 days after application; for pest or weed control at 70 g/ha: 70 g ai/ha; for pest or weed control at 140 g/ha: 140 g ai/ha
In short: as §1

[3] = Triticum aestivum, TRZSS (wheat), read-out: Visual Growth Reduction (%) 14 Days After Application, TRZSS
[4] = CYPES: yellow nutsedge (Cyperus esculentus), read-out: Visual Growth Reduction (%) 14 Days After Application, CYPES
[5] = DIGSA: crabgrass (Digitaria sanguinalis), read-out: Visual Growth Reduction (%) 14 Days After Application, DIGSA
[6] = ECHCG: barnyardgrass (Echinochloa crus-galli), read-out: Visual Growth Reduction (%) 14 Days After Application, ECHCG
[7] = ORYSA: rice (Oryza sativa), read-out: Visual Growth Reduction (%) 14 Days After Application, ORYSA
[8] = SETFA: giant foxtail (Setaria faberi), read-out: Visual Growth Reduction (%) 14 Days After Application, SETFA
[9] = SORVU: grain sorghum (Sorghum vulgare), read-out: Visual Growth Reduction (%) 14 Days After Application, SORVU
[10] = ZEAMX: maize, corn (Zea mays), read-out: Visual Growth Reduction (%) 14 Days After Application, ZEAMX
[11] = ABUTH: velvetleaf (Abutilon theophrasti), read-out: Visual Growth Reduction (%) 14 Days After Application ABUTH
[12] = AMARE: redroot pigweed (Amaranthus retroflexus), read-out: Visual Growth Reduction (%) 14 Days After Application AMARE
[13] = BRSNN: oilseed-rape, canola (Brassica napus), read-out: Visual Growth Reduction (%) 14 Days After Application BRSNN
[14] = CHEAL: lambsquarters (Chenopodium album), read-out: Visual Growth Reduction (%) 14 Days After Application CHEAL
[15] = EPHHL: wild poinsettia (Euphorbia heterophylla), read-out: Visual Growth Reduction (%) 14 Days After Application EPHHL
[16] = HELAN: sunflower (Helianthus annuus), read-out: Visual Growth Reduction (%) 14 Days After Application HELAN
[17] = VIOTR: wild pansy (Viola tricolor), read-out: Visual Growth Reduction (%) 14 Days After Application VIOTR

COC(=O)c1nc(-c2ccc(Br)c(F)c2)nc(N)c1OC [Compound 171, Methyl 6-amino-2-(4-bromo-3-fluorophenyl)-5-methoxypyrimidine-4-carboxylate]
pest or weed control at 70 g/ha [1, 3]: 30 to 44% | pest or weed control at 140 g/ha [1, 3]: 30 to 44% | pest or weed control at 70 g/ha [1, 4]: 45 to 59% | pest or weed control at 140 g/ha [1, 4]: 45 to 59% | pest or weed control at 70 g/ha [1, 5]: 0 to 29% | pest or weed control at 140 g/ha [1, 5]: 60 to 74% | pest or weed control at 70 g/ha [1, 6]: 30 to 44% | pest or weed control at 140 g/ha [1, 6]: 60 to 74% | pest or weed control at 70 g/ha [1, 7]: 0 to 29% | pest or weed control at 140 g/ha [1, 7]: 0 to 29% | pest or weed control at 70 g/ha [1, 8]: 0 to 29% | pest or weed control at 140 g/ha [1, 8]: 0 to 29% | pest or weed control at 70 g/ha [1, 9]: 0 to 29% | pest or weed control at 140 g/ha [1, 9]: 45 to 59% | pest or weed control at 70 g/ha [1, 10]: 60 to 74% | pest or weed control at 140 g/ha [1, 10]: 75 to 84% | pest or weed control at 70 g/ha [2, 11]: 75 to 84% | pest or weed control at 140 g/ha [2, 11]: 85 to 94% | pest or weed control at 70 g/ha [2, 12]: 85 to 94% | pest or weed control at 140 g/ha [2, 12]: 95 to 100% | pest or weed control at 70 g/ha [2, 13]: 85 to 94% | pest or weed control at 140 g/ha [2, 13]: 85 to 94% | pest or weed control at 70 g/ha [2, 14]: 85 to 94% | pest or weed control at 140 g/ha [2, 14]: 85 to 94% | pest or weed control at 70 g/ha [2, 15]: 95 to 100% | pest or weed control at 140 g/ha [2, 15]: 95 to 100% | pest or weed control at 70 g/ha [2, 16]: 85 to 94% | pest or weed control at 140 g/ha [2, 16]: 85 to 94% | pest or weed control at 70 g/ha [2, 17]: 95 to 100% | pest or weed control at 140 g/ha [2, 17]: 95 to 100%
